Test results as given in patent US11820728B2, “Carbonyl lipids and lipid nanoparticle formulations for delivery of nucleic acids” (Acuitas Therapeutics, Inc., priority 2017, dated 2023).

Legend:
[1] = Determination of pKa of formulated lipids (TNS fluorescence assay in lipid nanoparticles); type: physicochemical; details: lipid formulated in LNP, 47.5% cationic lipid/10% DSPC/40.8% Cholesterol/1.7% PEG lipid
Procedure: As described elsewhere, the pKa of formulated lipids is correlated with the effectiveness of LNPs for delivery of nucleic acids (see Jayaraman et al, Angewandte Chemie, International Edition (2012), 51(34), 8529-8533; Semple et al, Nature Biotechnology 28, 172-176 (2010)). The preferred range of pKa is ˜5 to ˜7. The pKa of each lipid was determined in lipid nanoparticles using an assay based on fluorescence of 2-(p-toluidino)-6-napthalene sulfonic acid (TNS). Lipid nanoparticles comprising novel lipid or structure (I) or (II)/DSPC/cholesterol/PEG-lipid (50/10/38.5/1.5 or 47.5:10:40.8:1.7 mol %) in PBS at a concentration of 0.4 mM total lipid are prepared using the in-line process as described in Example 1. TNS was prepared as a 100 μM stock solution in distilled water. Vesicles were diluted to 24 μM lipid in 2 mL of buffered solutions containing 10 mM HEPES, 10 mM MES, 10 mM ammonium acetate, and 130 mM NaCl, where the pH ranged from 2.5 to 11. An aliquot of the TNS solution was added to give a final concentration of 1 μM and following vortex mixing fluorescence intensity was measured at room temperature in a SLM Aminco Series 2 Luminescence Spectrophotometer using excitation and emission wavelengths of 321 nm and 445 nm. A sigmoidal best fit analysis was applied to the fluorescence data and the pKa was measured as the pH giving rise to half-maximal fluorescence intensity.
(§1) Tables 3 and 4 provide properties of representative compounds of structure (I) and (II), respectively, which were formulated using the following molar ratio: 47.5% cationic lipid/10% distearoylphosphatidylcholine (DSPC)/40.8% Cholesterol/1.7% PEG lipid (“PEG-DMA” 2-[2-(ω-methoxy(polyethyleneglycol2000)ethoxy]-N,N-ditetradecylacetamide). Relative activity was determined by measuring luciferase expression in the liver 4 hours following administration via tail vein injection as described in Example 1. The activity was compared at a dose of 0.3 and 1.0 mg mRNA/kg and expressed as ng luciferase/g liver measured 4 hours after administration, as described in Example 1.

[2] = system: luciferase expression in the liver; experiment: Luciferase mRNA in vivo evaluation using lipid nanoparticle compositions; parameters: species or system mice; details: tail vein injection, liver 4 hours after administration, LNP 47.5/10/40.8/1.7; for Liver Luc @ 0.3 mg/kg (ng luc/g liver): 0.3 mg mRNA/kg; for Liver Luc @ 1.0 mg/kg (ng luc/g liver): 1.0 mg mRNA/kg
Procedure: A lipid of structure (I) or (II), DSPC, cholesterol and PEG-lipid were solubilized in ethanol at a molar ratio of 50:10:38.5:1.5 or 47.5:10:40.8:1.7. Lipid nanoparticles (LNP) were prepared at a total lipid to mRNA weight ratio of approximately 10:1 to 30:1. Briefly, the mRNA was diluted to 0.2 mg/mL in 10 to 50 mM citrate buffer, pH 4. Syringe pumps were used to mix the ethanolic lipid solution with the mRNA aqueous solution at a ratio of about 1:5 to 1:3 (vol/vol) with total flow rates above 15 mL/min. The ethanol was then removed and the external buffer replaced with PBS by dialysis. Finally, the lipid nanoparticles were filtered through a 0.2 µm pore sterile filter.
Studies were performed in 6-8 week old female C57BL/6 mice (Charles River) 8-10 week old CD-1 (Harlan) mice (Charles River) according to guidelines established by an institutional animal care committee (ACC) and the Canadian Council on Animal Care (CCAC). Varying doses of mRNA-lipid nanoparticle were systemically administered by tail vein injection and animals euthanized at a specific time point (e.g., 4 hours) post-administration. Liver and spleen were collected in pre-weighed tubes, weights determined, immediately snap frozen in liquid nitrogen and stored at −80° C. until processing for analysis.
For liver, approximately 50 mg was dissected for analyses in a 2 mL FastPrep tubes (MP Biomedicals, Solon Ohio). ¼″ ceramic sphere (MP Biomedicals) was added to each tube and 500 μL of Glo Lysis Buffer—GLB (Promega, Madison WI) equilibrated to room temperature was added to liver tissue. Liver tissues were homogenized with the FastPrep24 instrument (MP Biomedicals) at 2×6.0 m/s for 15 seconds. Homogenate was incubated at room temperature for 5 minutes prior to a 1:4 dilution in GLB and assessed using SteadyGlo Luciferase assay system (Promega). Specifically, 50 μL of diluted tissue homogenate was reacted with 50 μL of SteadyGlo substrate, shaken for 10 seconds followed by 5 minute incubation and then quantitated using a CentroXS^3 LB 960 luminometer (Berthold Technologies, Germany). The amount of protein assayed was determined by using the BCA protein assay kit (Pierce, Rockford, IL). Relative luminescence units (RLU) were then normalized to total μg protein assayed. To convert RLU to ng luciferase a standard curve was generated with QuantiLum Recombinant Luciferase (Promega).
The FLuc mRNA (L-6107) from Trilink Biotechnologies will express a luciferase protein, originally isolated from the firefly, photinus pyralis. FLuc is commonly used in mammalian cell culture to measure both gene expression and cell viability. It emits bioluminescence in the presence of the substrate, luciferin. This capped and polyadenylated mRNA is fully substituted with 5-methylcytidine and pseudouridine.
as §1

Row | pKa ([1]; structure (I) compounds) | pKa ([1]; structure (II) compounds) | SMILES | Liver Luc @ 0.3 mg/kg (ng luc/g liver) ([2]; structure (I) compounds) | Liver Luc @ 1.0 mg/kg (ng luc/g liver) ([2]; structure (I) compounds) | Liver Luc @ 0.3 mg/kg (ng luc/g liver) ([2]; structure (II) compounds) | Liver Luc @ 1.0 mg/kg (ng luc/g liver) ([2]; structure (II) compounds)
1 | 5.57 |  | CCCCCCCCC(CCCCCC)COC(=O)CCCCCN(CCCCCC(=O)OCC(CCCCCC)CCCCCCCC)CCCCC(=O)O (stereo not shown) [Compound I-2] |  |  |  | 
2 | 5.99 |  | CCCCCCCCNC(=O)CCCCN(CCCCCC(=O)OCC(CCCCCC)CCCCCCCC)CCCCCC(=O)OCC(CCCCCC)CCCCCCCC (stereo not shown) [Compound I-3] | 139 ± 43 | 1711 ± 507 |  | 
3 | 6.32 |  | CCCCCCCCCN(CCO)C(=O)CCCCN(CCCCCC(=O)OCC(CCCCCC)CCCCCCCC)CCCCCC(=O)OCC(CCCCCC)CCCCCCCC (stereo not shown) [Compound I-6] | 580 ± 209 | 3290 ± 582 |  | 
4 | 5.89 |  | CCCCCCCCC(CCCCCC)COC(=O)CCCCCCCN(CCCCCCCC(=O)OCC(CCCCCC)CCCCCCCC)CCCCC(=O)N(CC)CC (stereo not shown) [Compound I-11] | 228 ± 101 | 910 ± 454 |  | 
5 | 6.01 |  | CCCCCCCCC(CCCCCC)COC(=O)CCCCCCCN(CCCCCCCC(=O)OCC(CCCCCC)CCCCCCCC)CCCCC(=O)N(CCCO)CCCCCCCC (stereo not shown) [Compound I-12] | 413 ± 143 | 4002 ± 1573 |  | 
6 |  | 5.95 | CCCCCCCCC(CCCCCC)COC(=O)CCCCCN(CCCCCC(=O)OCC(CCCCCC)CCCCCCCC)CCCCNC(=O)CCCCCCC (stereo not shown) [II-4] |  |  | 150 ± 59 | 1405 ± 306
7 |  | 6.8 | CCCCCCCCC(CCCCCC)COC(=O)CCCCCCCN(CCCCCCCC(=O)OCC(CCCCCC)CCCCCCCC)CCCCN(C)C(C)=O (stereo not shown) [II-5] |  |  | 146 ± 16 | 695 ± 278
8 |  | 5.63 | CCCCCCCC(=O)N(C)CCCN(CCCCCC(=O)OCC(CCCC)CCCCCC)CCCCCC(=O)OCC(CCCC)CCCCCC (stereo not shown) [II-14] |  |  | 128 ± 17 | 827 ± 537
9 |  | 6.08 | CCCCCCCCC(CCCCCC)COC(=O)CCCCCN(CCCCCC(=O)OCC(CCCCCC)CCCCCCCC)CCCN(CCCO)C(=O)CCCCCCC (stereo not shown) [II-16] |  |  | 93 ± 38 | 1312 ± 569
